Experimental data as given in patent US6391505B1, “Phthalocyanine crystal and its production, and electrophotosensitive material using the same” (Kyocera Mita Corporation, priority 1999, dated 2002).

Legend:
[1] = Solubility of organic acceptor compound in tetrahydrofuran (solvent of coating solution); format: physicochemical; conditions: for Solubility / Solubility/THF [% by weight]: THF; for Solubility/THF [% by weight]: organic acceptor; for Solubility/THF [% by weight] of organic acceptor: in THF
Source text: Specific examples of the organic acceptor compound are shown below.

[2] = Reduction potential of organic acceptor compound by cyclic voltammetry; format: physicochemical; conditions: for Reduction potential [V] of organic acceptor: organic acceptor added when producing the phthalocyanine crystal, reference electrode (Ag+/Ag); for Reduction potential [V] / Redox potential: organic acceptor; for Reduction Potential: to reference electrode (Ag+/Ag), cyclic voltammetry in dichloromethane
Protocol: The reduction potential of the organic acceptor compound was determined by a cyclic voltammetry. The measurement conditions are shown below.
Work electrode: glassy carbon
Counter electrode: platinum
Reference electrode: silver/silver nitrate (0.1 mol/1AgNO3-acetonitrile solution)
Electrolyte: tetra-n-butylammonium perchlorate (0.1 mol)
Specimen: acceptor compound (0.001 mol)
Solvent: dichloromethane (1 L)

| SMILES | Solubility [1] [% by weight] | Solubility/THF [% by weight] ([1]; Table 1) | Solubility/THF [% by weight] ([1]; Table 2) | Solubility/THF [% by weight] ([1]; Table 4) | Solubility/THF [% by weight] ([1]; Table 6) | Solubility/THF [% by weight] of organic acceptor ([1]; Table 3) [% by weight] | Solubility/THF [% by weight] of organic acceptor ([1]; Table 5) [% by weight] | Reduction potential [V] of organic acceptor ([2]; Table 3) [V] | Reduction potential [V] of organic acceptor ([2]; Table 5) [V] | Reduction potential [V] ([2]; Table 1) | Reduction potential [V] ([2]; Table 2) | Redox potential ([2]; Table 4) | Redox potential ([2]; Table 6) | Reduction Potential [2] [V] |
| --- | --- | --- | --- | --- | --- | --- | --- | --- | --- | --- | --- | --- | --- | --- |
| O=C1C(Oc2ccccc2)=C(Oc2ccccc2)C(=O)c2ccccc21 [AC-1] | 3 | 3 | 3 | 3 | 3 | 3 | 3 | −0.95 | −0.95 | −0.95 | −0.95 | −0.95 | −0.95 | −0.95 |
| CC(C)(C)C1=CC(=C2C=C(C(C)(C)C)C(=O)C(C(C)(C)C)=C2)C=C(C(C)(C)C)C1=O [AC-2] | 3 | 3 | 3 | – | – | 3 | 3 | −0.85 | −0.85 | −0.85 | −0.85 | – | – | −0.85 |
| O=C1c2ccc3c4c(ccc(c24)C(=O)N1C1CCCCC1)C(=O)N(C1CCCCC1)C3=O [AC-3] | 1 | 1 | 1 | – | – | 1 | 1 | −0.85 | −0.85 | −0.85 | −0.85 | – | – | −0.85 |
| O=C1NC(=O)c2ccccc21 [AC-4] | 3 | 3 | 3 | – | – | 3 | 3 | −1.28 | −1.28 | −1.28 | −1.28 | – | – | −1.28 |
| O=C1OC(=O)c2ccccc21 [AC-5, reference compound] | 5 | – | – | 5 | 5 | – | – | – | – | – | – | −1.53 | −1.53 | −1.53 |
| O=C(c1ccccc1)c1ccccc1 [AC-6, reference compound] | – | – | – | – | – | – | – | – | – | – | – | −1.32 | −1.32 | −1.32 |
| Cc1ccc(C(=O)c2ccc(C)cc2)cc1 [AC-8, reference compound] | 11 | – | – | 11 | 11 | – | – | – | – | – | – | −1.31 | −1.31 | −1.31 |
